In patent US12233047B2, “Pharmaceutical combination and use thereof” (ASCENTAGE PHARMA (SUZHOU) CO., LTD., priority 2019, dated 2025):

Test system: Human AML cell line MV-4-11 (FLT3-ITD positive and wild type TP53 gene)
Assay: Human MV-4-11 AML subcutaneous mouse xenograft model
Assay type: in vivo
Settings: MV-4-11 subcutaneous xenograft, Compound 23 10 mg/kg, Compound C 30 mg/kg
Method: The formulation of Compound C was prepared as homogenous suspension in 0.2% HPMC using a mortar. The drug suspension was prepared every three days or once a week and placed at 4° C. when not in use. Before use, the drug suspension was placed at room temperature and shaken to mix well. The formulation of Compound C was administered to mice via p.o. in a volume of 10 mL/kg. […] The drug suspension was prepared once every other day and placed at 4° C. when not in use. Before use, the drug suspension was placed at room temperature and shaken well. […] MV-4-11 cells (Human AML cell line MV-4-11 (FLT3-ITD positive and wild type TP53 gene)) were maintained in IMDM (Cat. C12440500BT, GIBCO), with 10% fetal bovine serum (Cat. 10099-141, GIBCO), 1% L-glutamine, 100 U/mL penicillin G and 100 μg/mL streptomycin (Cat. GNM15140, Hangzhou Geno Biomedical Technology Co., Ltd). Cells were incubated at 37° C. in a humidified incubator with 5% CO2. Six to eight weeks old, female, NOD SCID and BALB/c nude mice were used. Animals were obtained from Vital River Laboratories (VRL, Beijing, China, license number SCXK(J) 2012-0001 and SCXK(J) 2016-0006). The body weights were 17-24 g. Randomization was conducted when the size of xenograft tumors reached 100-150 mm^3. Based on the size of the tumor and body weight, animals were randomly assigned into experimental groups. […] MV-4-11 subcutaneous xenograft models were established by subcutaneously injecting tumor cells (1×10^7 cells (50% Matrigel)/mouse) into the right flank of the mouse under the sterile condition. When the tumors reached an appropriate size (100-200 mm^3), mice were randomized into 6 mice per group and treatment was initiated (day 1) according to Table 4. [table] The tumors sizes and animal body weights were measured twice a week. Tumor volumes were estimated from measurements of two diameters of the individual tumors as follows: Tumor Volume (mm^3)=(a×b^2)/2 Relative tumor volume (RTV) were calculated according to the follows: RTV=Vt/V1 where V1 and Vt were respectively the average tumor volume on the first day of treatment (day 1) and the average tumor volume on a certain time point (day T). Standard NCI procedures were used to calculate tumor parameters (Teicher, B. A. (2011). “Tumor Models in Cancer Research.” Second Edition, Human Press). Percent tumor growth inhibition (% T/C) was calculated as the mean RTV of treated tumors (T) divided by the mean RTV of control tumors (C)×100%. […] A body weight loss (mean of group) of greater than 20%, or greater than 20% of drug deaths are considered to indicate an excessively toxic dosage. The synergistic analysis was performed using the following formula described in Clarke R. Issues in experimental design and endpoint analysis in the study of experimental cytotoxic agents in vivo in breast cancer and other models[J]. Breast Cancer Research & Treatment, 1997, 46(2-3):255-278, which is incorporated by reference in its entirety: expected value=(A/C)×(B/C); actual value=(AB)/C; A: RTV of drug A; B: RTV of drug B; C=RTV of the vehicle control group; AB=RTV of the combination group. Ratio=expected/actual value. […] A ratio=1 indicates the two drugs have additive effects. A ratio <1 indicates the two drugs may have antagonist effects. According to the earlier publication (Gao, H., et al. (2015). “High-throughput screening using patient-derived tumor xenografts to predict clinical trial drug response” Nat Med 21: 1318), additional measurements of response included stable disease (SD), partial tumor regression (PR), and complete regression (CR) were determined by comparing tumor volume change at day t to its baseline: tumor volume change (%)=(Vt−V1)/V1. […] For each time t, the average of tumor volume change from t=1 to t was also calculated. […]

## Cc1ccc(C(=O)Nc2ccc(CN3CCN(C)CC3)c(C(F)(F)F)c2)cc1C#Cc1cnc2[nH]ncc2c1 [Compound 23, 3-(2-(1H-pyrazolo[3,4-b]pyridin-5-yl)ethynyl)-4-methyl-N-(4-((4-methylpiperazin-1-yl)methyl)-3-(trifluoromethyl)phenyl)benzamide]
Day 22, p.o. q2d × 22 d, vehicle 2.29 ± 0.29, in g (unit assumed)
  Tumor weight on D 22 (Mean ± SEM): 0.67 ± 0.11
Mean RTV treated/control, day 22, p.o. q2d
  T/C(%)@D 22: 28.6%
Relative tumor volume day 22, p.o. q2d, vehicle 18.2 ± 3.3
  RTV@D 22: 5.2 ± 0.9
